{"source": "patent US20130217579A1", "about": "“Pesticide Preparations Containing N-Substituted 2-Pyrrolidone-4-Carboxylic Acid Esters” (CLARIANT FINANCE (BVI) LIMITED, priority 2010, published 2013)", "assay": "Solubilities of pesticides in compounds of formula (1)", "format": "physicochemical", "procedure": "The solubilities of various pesticides were determined in various compounds of formula (1) at 25° C. All data are in % by weight (Table 1).", "data": [{"compound": "CCCCOC(=O)C1CC(=O)N(C)C1", "note": "(centres unmarked) [Example 3, N-butyl N-methyl-2-pyrrolidone-4-carboxylate]", "values": [{"measurement": "Solubility of Pendimethalin in compound of formula (1)", "result": 38.9, "unit": "% by weight"}, {"measurement": "Solubility of Tebuconazole in compound of formula (1)", "result": 37.0, "unit": "% by weight"}, {"measurement": "Solubility of Triadimefon in compound of formula (1)", "result": 43.0, "unit": "% by weight"}, {"measurement": "Solubility of Trifloxystrobin in compound of formula (1)", "result": 30.1, "unit": "% by weight"}, {"measurement": "Solubility of Trifluralin in compound of formula (1)", "result": 57.4, "unit": "% by weight"}]}]}
